Literature values in patent US20190357582A1, “Methods For Inducing Adipocyte Browning, Improving Metabolic Flexibility, And Reducing Detrimental White Adipose Tissue Deposition And Dysfunction” (MEAD JOHNSON NUTRITION COMPANY, priority 2017, published 2019).

System: UCP1
Settings: positive control for browning

## COc1ccc2c(c1)[nH]c1c(C)nccc12 [Harmine]
  browning activity: browning activity
